Laboratory results published in patent publication US10338037B2, “Compounds and conjugates for identifying and separating post-translationally modified analytes” (UVic Industry Partnerships Inc., priority 2015, dated 2019).

Columns and labels:
Assay type in all cases: binding
[1] = target: T1, H3K4 peptide (unmethylated) (Homo sapiens, UniProt P68431); experiment: fluorescence indicator displacement assay, solution-phase affinity for H3K4 peptide; conditions: for Kd: 10 mM phosphate buffer at pH 7.4, average of triplicate determinations, indicator displacement assay, read-out: Solution-phase equilibrium dissociation constant (Kd), H3K4; for binding to unmethylated controls (in words): solution phase, relative to methylated peptides
T1 construct: H3 1-7=H2N-ARTKQTAY-COOH; made in house; host or cells: chemical solid-phase peptide synthesis
Method: (§1) In this example, the activity of various compound embodiments described herein were evaluated. A calixarene parent compound and compounds 502 and 404 were evaluated. Compound 502 was used has an upper-rim aryl group attached via sulfonamide linkage, and also includes a distal carboxy group for conjugation to solid-phase supports. The solution-phase affinities of a calixarene parent compound, and compounds 502 and 404 were determined for various methyllysine and methylarginine containing peptides by fluorescence indicator displacement assay (Table 1).
(§2) All values were determined in 10 mM phosphate buffer at pH 7.4 and are averages of triplicate determinations by an indicator displacement assay.

[2] = target: T2, H3K4me peptide (Homo sapiens, UniProt P68431); experiment: fluorescence indicator displacement assay, solution-phase affinity for H3K4me peptide; conditions: 10 mM phosphate buffer at pH 7.4, average of triplicate determinations, read-out: Solution-phase equilibrium dissociation constant (Kd), H3K4me
T2 construct: H3 1-7=H2N-ARTKQTAY-COOH; made in house; host or cells: chemical solid-phase peptide synthesis
Method: as §1, §2

[3] = target: T3, H3K4me2 peptide (Homo sapiens, UniProt P68431); experiment: fluorescence indicator displacement assay, solution-phase affinity for H3K4me2 peptide; conditions: for Kd: 10 mM phosphate buffer at pH 7.4, average of triplicate determinations, read-out: Solution-phase equilibrium dissociation constant (Kd), H3K4me2; for affinity for Kme2-containing peptides (in words): solution phase
T3 construct: H3 1-7=H2N-ARTKQTAY-COOH; made in house; host or cells: chemical solid-phase peptide synthesis
Method: as §1, §2

[4] = target: T4, H3K4me3 peptide; experiment: fluorescence indicator displacement assay, solution-phase affinity for H3K4me3 peptide
T4 construct: other: solution phase, indicator displacement assay; fused on or other part: C-terminal Tyr added to read concentration by A280; trimethyl-lysine (a PTM)
Method: as §1, §2

[5] = target: T5, H3K4ac peptide (Homo sapiens, UniProt P68431); experiment: fluorescence indicator displacement assay, solution-phase affinity for H3K4ac peptide; conditions: for Kd: 10 mM phosphate buffer at pH 7.4, average of triplicate determinations, indicator displacement assay, read-out: Solution-phase equilibrium dissociation constant (Kd), H3K4ac; for binding to Kac containing peptides (in words): solution phase, relative to methylated peptides
T5 construct: H3 1-7=H2N-ARTKQTAY-COOH; made in house; host or cells: chemical solid-phase peptide synthesis
Method: as §1, §2

[6] = target: T6, H3R2me2s peptide (Homo sapiens, UniProt P68431); experiment: fluorescence indicator displacement assay, solution-phase affinity for H3R2me2s peptide; conditions: 10 mM phosphate buffer at pH 7.4, average of triplicate determinations, read-out: Solution-phase equilibrium dissociation constant (Kd), H3R2me2s
T6 construct: H3 1-7=H2N-ARTKQTAY-COOH; made in house; host or cells: chemical solid-phase peptide synthesis
Method: as §1, §2

[7] = target: T7, H3R2me2a peptide (Homo sapiens, UniProt P68431); experiment: fluorescence indicator displacement assay, solution-phase affinity for H3R2me2a peptide; conditions: for Kd: 10 mM phosphate buffer at pH 7.4, average of triplicate determinations, read-out: Solution-phase equilibrium dissociation constant (Kd), H3R2me2a
T7 construct: H3 1-7=H2N-ARTKQTAY-COOH; made in house; host or cells: chemical solid-phase peptide synthesis
Method: as §1, §2

[8] = target: T8, H3K9me3 peptide (Homo sapiens, UniProt P68431); experiment: fluorescence indicator displacement assay, solution-phase affinity for H3K9me3 peptide; conditions: 10 mM phosphate buffer at pH 7.4, average of triplicate determinations, read-out: Solution-phase equilibrium dissociation constant (Kd), H3K9me3
T8 construct: H3 1-12=H2N-ARTKQTARKSTGY-COOH; made in house; host or cells: chemical solid-phase peptide synthesis
Method: as §1, §2

Structure (SMILES) | Kd [1] | binding to unmethylated controls (in words) [1] | Kd [2] | Kd [3] | affinity for Kme2-containing peptides (in words) [3] | affinity for Kme3-containing peptides (in words) [4] | Kd [5] | binding to Kac containing peptides (in words) [5] | Kd [6] | Kd [7] | affinity for aDMA-containing peptides (in words) ([7]; solution phase) | Kd [8]
O=C(O)c1ccc(S(=O)(=O)Nc2cc3c(O)c(c2)Cc2cc(S(=O)(=O)O)cc(c2O)Cc2cc(S(=O)(=O)O)cc(c2O)Cc2cc(S(=O)(=O)O)cc(c2O)C3)cc1 [Compound 502, 5-(4-carboxyphenyl)sulfonamido-25, 26, 27, 28-tetrahydroxy-11-17-23-trisulfonatocalix[4]arene] | 3.8 µM | weaker binding | 1.3 µM | 0.4 µM | sub-micromolar | sub-micromolar | 7.6 µM | weaker binding | 2.6 µM | 0.6 µM | sub-micromolar | 0.5 µM
O=C(O)Cc1ccc(-c2cc3c(O)c(c2)Cc2cc(S(=O)(=O)O)cc(c2O)Cc2cc(S(=O)(=O)O)cc(c2O)Cc2cc(S(=O)(=O)O)cc(c2O)C3)cc1 [Compound 404, 5-(4-carboxymethylphenyl)-25, 26, 27, 28-tetrahydroxy-11-17-23-trisulfonatocalix[4]arene] | 85.5 µM | weaker binding | 2.3 µM | 0.1 µM | sub-micromolar | sub-micromolar | > 1000 µM | weaker binding | 6.62 µM | 1 µM |  | 1 µM
